Assay results from patent US4831026A, “2-oxa-isocephem compounds, compositions containing same and processes of using” (Otsuka Pharmaceutical Co., Ltd., priority 1985, dated 1989).
Read-outs that look alike come from different tables or passages of the source.

Experiments:
M. morganii ATCC-25830 = assay: Antimicrobial activity test: MIC by the agar plate dilution method, M. morganii ATCC-25830; type: cell-based; settings: inoculum 1×10^6 cells/ml
Method in brief: (§1)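 Read-out is the minimal inhibitory concentration, determined in vitro by agar plate dilution with test inocula of 1×10^6 cells/ml.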

S. marcescens IFO-12648 = assay: Antimicrobial activity test: MIC by the agar plate dilution method, S. marcescens IFO-12648; type: cell-based
Method in brief: as §1

P. aeruginosa NCTC-10490 = assay: Antimicrobial activity test: MIC by the agar plate dilution method, P. aeruginosa NCTC-10490; type: cell-based; settings: inoculum 1×10^6 cells/ml
Method in brief: as §1

S. aureus FDA-209-p = assay: Antimicrobial activity test: MIC by the agar plate dilution method, S. aureus FDA-209-p; type: cell-based, Staphylococcus aureus; settings: inoculum 1×10^6 cells/ml
Method in brief: as §1

E. coli No. 29 = assay: Antimicrobial activity test: MIC by the agar plate dilution method, E. coli No. 29; type: cell-based
Method in brief: as §1

E. coli NIHJ = assay: Antimicrobial activity test: MIC by the agar plate dilution method, E. coli NIHJ; type: cell-based; settings: inoculum 1×10^6 cells/ml
Protocol: In order to investigate the in vitro activity of the under-mentioned compounds against various bacteria, the minimal inhibitory concentration (MIC) values were determined by the agar plate dilution method [see Chemotherapy, 22, 1126-1128 (1974)].
Each test inoculum was adjusted to 1×10^6 cells/ml (O.D., 600 mμ: 0.07-0.16).

K. pneumoniae NCTC-9632 = assay: Antimicrobial activity test: MIC by the agar plate dilution method, K. pneumoniae NCTC-9632; type: cell-based; settings: inoculum 1×10^6 cells/ml
Method in brief: as §1

P. mirabilis 1287 = assay: Antimicrobial activity test: MIC by the agar plate dilution method, P. mirabilis 1287; type: cell-based; settings: P. mirabilis 1287; inoculum 1×10^6 cells/ml
Method in brief: as §1

[1] = S. marcescens IFO-12648, inoculum 1×10^6 cells/ml
[2] = E. coli No. 29, inoculum 1×10^6 cells/ml

Work on “7-[2-(2-Aminothiazol-4-yl)-2-methoxyiminoacetamido]-3-[(1,4,5,6-tetrahydro-4-methyl-5,6-dioxo-1,2,4-triazin-3-yl)thiomethyl]-Δ^3 -O-2-isocephem-4-carboxylic acid (syn-isomer) [No. 4]” yielded an MIC (M. morganii ATCC-25830) of no more than 0.025 µg/mL, an MIC (S. marcescens IFO-12648; [1]) of 0.2 µg/mL and an MIC (P. aeruginosa NCTC-10490) of 50 µg/mL. The MIC (S. aureus FDA-209-p) was 0.78 µg/mL, the MIC (E. coli No. 29; [2]) was no more than 0.025 µg/mL and the MIC (E. coli NIHJ) was no more than 0.025 µg/mL. For the same substance, the MIC (K. pneumoniae NCTC-9632) was no more than 0.025 µg/mL and the MIC (P. mirabilis 1287) was no more than 0.025 µg/mL.

In the case of “7-[2-(2-Aminothiazol-4-yl)-2-cyanomethyloxyiminoacetamido]-3-[(1,2,3-thiadiazol-5-yl)thiomethyl]-Δ^3 -O-2-isocephem-4-carboxylic acid trifluoroacetate (syn-isomer) [Example 55]”, the MIC (M. morganii ATCC-25830) was no more than 0.025 µg/mL, the MIC (S. marcescens IFO-12648; [1]) was 0.1 µg/mL and the MIC (P. aeruginosa NCTC-10490) was 1.56 µg/mL. The MIC (S. aureus FDA-209-p) was 0.2 µg/mL, the MIC (E. coli No. 29; [2]) was no more than 0.025 µg/mL and the MIC (E. coli NIHJ) was no more than 0.025 µg/mL. For the same substance, the MIC (K. pneumoniae NCTC-9632) was no more than 0.025 µg/mL and the MIC (P. mirabilis 1287) was no more than 0.025 µg/mL.

“7-[2-(2-Aminothiazol-4-yl)-2-methoxyiminoacetamido]-3-[(1,2,3-thiadiazol-5-yl)thiomethyl]-Δ^3 -O-2-isocephem-4-carboxylic acid trifluoroacetate (syn-isomer) [No. 14]” gave an MIC (M. morganii ATCC-25830) of no more than 0.025 µg/mL, an MIC (S. marcescens IFO-12648; [1]) of 0.1 µg/mL and an MIC (P. aeruginosa NCTC-10490) of 1.56 µg/mL. For the same substance, the MIC (S. aureus FDA-209-p) was 0.1 µg/mL, the MIC (E. coli No. 29; [2]) was no more than 0.025 µg/mL and the MIC (E. coli NIHJ) was no more than 0.025 µg/mL. It also gave an MIC (K. pneumoniae NCTC-9632) of no more than 0.025 µg/mL and an MIC (P. mirabilis 1287) of no more than 0.025 µg/mL.

Work on “7-[2-(2-Aminothiazol-4-yl)-2-cyclopropvlmethyloxyiminoacetamido]-3-[(1,2,3- thiadiazol-5-yl)thiomethyl]-Δ^3 -O-2-isocephem-4-carboxylic acid (syn-isomer) [Example 57]” yielded an MIC (M. morganii ATCC-25830) of 0.05 µg/mL, an MIC (S. marcescens IFO-12648) of 0.78 µg/mL and an MIC (P. aeruginosa NCTC-10490) of 0.78 µg/mL. For the same substance, the MIC (S. aureus FDA-209-p) was 0.1 µg/mL, the MIC (E. coli No. 29; [2]) was 0.1 µg/mL and the MIC (E. coli NIHJ) was 0.2 µg/mL. For the same substance, the MIC (K. pneumoniae NCTC-9632) was 0.39 µg/mL and the MIC (P. mirabilis 1287) was 0.1 µg/mL.

In the case of “7-[2-(2-Aminothiazol-4-yl)-2-methoxyiminoacetamido]-3-[(carbamoyloxy)methyl]-Δ^3 -O-2-isocephem-4-carboxylic acid (syn-isomer) [No. 1]”, the MIC (M. morganii ATCC-25830) was 0.1 µg/mL, the MIC (S. marcescens IFO-12648) was 0.78 µg/mL and the MIC (P. aeruginosa NCTC-10490) was 1.56 µg/mL. The MIC (S. aureus FDA-209-p) was 0.78 µg/mL, the MIC (E. coli No. 29) was 0.39 µg/mL and the MIC (E. coli NIHJ) was 0.2 µg/mL. It also gave an MIC (K. pneumoniae NCTC-9632) of 0.39 µg/mL and an MIC (P. mirabilis 1287) of 0.1 µg/mL.

“7-[2-(2-Aminothiazol-4-yl)-2-cyclopropylmethyloxyiminoacetamido]-3-[(1,3,4-thiadiazol-2-yl)thiomethyl]-Δ^3 -O-2-isocephem-4-carboxylic acid trifluoroacetate (syn-isomer) [No. 10]” gave an MIC (M. morganii ATCC-25830) of no more than 0.025 µg/mL, an MIC (S. marcescens IFO-12648; [1]) of 0.05 µg/mL and an MIC (P. aeruginosa NCTC-10490) of 3.13 µg/mL. It also gave an MIC (S. aureus FDA-209-p) of 0.05 µg/mL, an MIC (E. coli No. 29; [2]) of 0.05 µg/mL and an MIC (E. coli NIHJ) of no more than 0.025 µg/mL. It also gave an MIC (K. pneumoniae NCTC-9632) of 0.05 µg/mL and an MIC (P. mirabilis 1287) of no more than 0.025 µg/mL.

In the case of “Benzyl 7-[2-(2-chloroacetamidothiazol-4-yl)-2-ethoxyiminoacetamido]-3-[(1,3,4-thiadiazol-2-yl)thiomethyl]-Δ^3 -O-2-isocephem-4-carboxylate (syn-isomer) [Example 27]”, the MIC (M. morganii ATCC-25830) was 0.1 µg/mL, the MIC (S. marcescens IFO-12648; [1]) was 0.2 µg/mL and the MIC (P. aeruginosa NCTC-10490) was 0.2 µg/mL. It also gave an MIC (S. aureus FDA-209-p) of 0.1 µg/mL, an MIC (E. coli No. 29; [2]) of 0.1 µg/mL and an MIC (E. coli NIHJ) of 0.10 µg/mL. The MIC (K. pneumoniae NCTC-9632) was 0.2 µg/mL and the MIC (P. mirabilis 1287) was 0.1 µg/mL.

In the case of “7-[2-(2-Aminothiazol-4-yl)-2-allyloxyiminoacetamido]-3-[(1,3,4-thiadiazol- 2-yl)thiomethyl]- Δ^3 -O-2-isocephem-4-carboxylic acid (syn-isomer) [No. 3]”, the MIC (M. morganii ATCC-25830) was no more than 0.025 µg/mL, the MIC (S. marcescens IFO-12648; [1]) was 0.2 µg/mL and the MIC (P. aeruginosa NCTC-10490) was 12.5 µg/mL. The MIC (S. aureus FDA-209-p) was 0.78 µg/mL, the MIC (E. coli No. 29; [2]) was no more than 0.025 µg/mL and the MIC (E. coli NIHJ) was no more than 0.025 µg/mL. For the same substance, the MIC (K. pneumoniae NCTC-9632) was 0.1 µg/mL and the MIC (P. mirabilis 1287) was no more than 0.025 µg/mL.

“Benzhydryl 7-[2-(2-formamidothiazol-4-yl)-2-ethoxyiminoacetamido]-3-[(1,3,4-thiadiazol-2-yl)thiomethyl]-Δ^3 -O-2-isocephem-4-carboxylate (syn-isomer) [Example 30]” gave an MIC (M. morganii ATCC-25830) of 0.39 µg/mL, an MIC (S. marcescens IFO-12648) of 0.39 µg/mL and an MIC (P. aeruginosa NCTC-10490) of 25 µg/mL. It also gave an MIC (S. aureus FDA-209-p) of 0.1 µg/mL, an MIC (E. coli No. 29; [2]) of 0.1 µg/mL and an MIC (E. coli NIHJ) of 0.05 µg/mL. It also gave an MIC (K. pneumoniae NCTC-9632) of 0.2 µg/mL and an MIC (P. mirabilis 1287) of 0.2 µg/mL.

With “7-[2-(2-Aminothiazol-4-yl)-2-methoxyiminoacetamido]-3-[(1,3,4-thiadiazol-2-yl)thiomethyl]- Δ^33 -O-2-isocephem-4-carboxylic acid (syn-isomer) [No. 2]” the MIC (M. morganii ATCC-25830) was 0.2 µg/mL, the MIC (S. marcescens IFO-12648) was 0.78 µg/mL and the MIC (P. aeruginosa NCTC-10490) was 3.13 µg/mL. For the same substance, the MIC (S. aureus FDA-209-p) was 1.56 µg/mL, the MIC (E. coli No. 29) was 0.78 µg/mL and the MIC (E. coli NIHJ) was 0.39 µg/mL. It also gave an MIC (K. pneumoniae NCTC-9632) of 0.78 µg/mL and an MIC (P. mirabilis 1287) of 0.1 µg/mL.
